The target of the assay is T1, A. thaliana protein molecule SEQ ID NO: 4 (His-tagged, from pMON63134) (Arabidopsis thaliana, UniProt Q9ZW18).
T1 construct: His-tag (N); made in house; host or cells: E. coli (pET-28b vector, plasmid pMON63134)
Put plainly: Spectrophotometric reductase assay, consumption or production of NADPH at 340 nm. The format is biochemical. The source says: Appropriate clones (as shown in FIGS. 4-7) expressing all four versions of above-mentioned proteins in E. coli were identified by appropriate antibiotic selection as described by the manufacturer (Novagen 441 Charmany Drive Madison, Wis., 53719, USA). Expressed protein bands of the predicted sizes were identified by analytical SDS poly acrylamide gel electrophoresis (Laemmli, U.K., Nature, 227, 680, 1970) to confirm the expression of desired protein. […] Protein obtained from the plasmid pMON63134 (FIG. 6) was chosen for assay work described below. Protein extracts were prepared by freeze thawing and sonication as described Cull and McHenry (Cull M and McHenry C. S. Methods in Enzymology 182, 147-153, 1990). Pellets were resuspended in an appropriate volume of either 50 mM Tris-HCl pH 7.4 250 mM NaCl and 500 μM EDTA with 0.05% CHAPS and 1 mM ABESF or 50 mM KH2PO4 pH-7.2 250 mM NaCl and 250 μM EDTA with 0.05% CHAPS and 1 mM ABESF, buffer. Crude extracts containing His-tagged protein were applied to equilibrated His-Trap (Pharmacia Piscataway, N.J.) columns and purified by standard procedures as described by the manufacturer of the columns. Steps included a 10 mM imidazole elution/wash and elution in 250 mM imidazole. As a result the Arabidopsis tagged protein was partially purified (approximately 85-90% by SDS-PAGE stained with Coomasie Blue). Purified samples were gel filtered into 50 mM KH2PO4 pH-7.2 250 mM NaCl and 250 μM EDTA, 10% glycerol and stored at −80° C. until use. Protein concentrations were 1.5 to 1.7 mg/mL, based on the method of Bradford (Bradford M, Anal Biochem, 72, 248, 1976 and Bio-Rad Laboratories Procedure bulletin 1123) with BSA standard (Bradford reagent and BSA was from Bio-Rad Laboratories Headquarters 1000 Alfred Nobel Drive Hercules, Calif. 94547). The assays described below used 10 or 15 uL of this solution (15 to 22 μg per reaction).
Spectrophotometric assays were used for determination of enzyme activities of purified proteins. Assays were based on earlier described methods (Portsteffen et al. Phyochemistry, 37, 391, 1994). […] Assays were performed in a Varian Cary 50 Bio spectrophotometer (Varian Instruments Inc. AA, ICP, UV, to Fluorescence Products 679 Springvale RoadMulgrave, Victoria 3170 Australia). All assays were run at 30° C. for 10 to 30 minutes in 1 mL volumes using 100 mM KH2PO4 pH 6.5, 250 μM EDTA or 50 mM KH2PO4 pH-7.2, 250 mM NaCl, and 250 μM EDTA as reaction buffer. If metals were added they were supplemented to reactions in cuvettes from 100 mM stocks of either ZnCl2 and or MgCl2. Substrates included those found in table 8. […] Controls contained no substrate to determine the background rate of consumption and degradation of NADPH. NADPH solutions were freshly made and checked by UV-vis for degradation. Enzyme solutions were supplemented with 1 mM MgCl2 and 1 mM Zn Cl2 which were at 1.5 to 1.7 mg/mL concentrations. The assays used 10 or 15 μl of this solution (ca. 15 to 22 μg per reaction). Stock solutions of the substrates (20 to 500 mM) were made up in a reaction buffer or as noted. Steroids solutions were made in 100% EtOH. From these stock solutions additions to the assays were made directly. Precipitation of steroids was observed. Thus, the soluble concentration of steroids in reaction mixture is not accurately known in each case. However, good estimate of substrate (sterol) concentration would be 100 to 200 μM for a saturated solution under these conditions. […] In addition to cell extract control, a substrate control was also employed because solutions of some substrates tested can have a lower pH at described assay conditions which may affect rates of NADPH degradation and enzyme activity under assay conditions.

T1 sequence (Q9ZW18 1-268): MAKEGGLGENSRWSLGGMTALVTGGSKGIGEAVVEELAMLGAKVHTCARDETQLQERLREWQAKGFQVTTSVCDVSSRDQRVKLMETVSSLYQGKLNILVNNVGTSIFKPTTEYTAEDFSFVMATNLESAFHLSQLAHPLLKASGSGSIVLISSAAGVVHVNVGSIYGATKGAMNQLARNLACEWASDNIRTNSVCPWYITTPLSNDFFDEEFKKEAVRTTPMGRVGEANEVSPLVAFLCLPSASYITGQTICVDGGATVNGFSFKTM

`CN1C2CCC1CC(=O)C2` [Tropinone]: the “Activity (substrate)” value (1 and 10 mM) is “No retested with new enzyme 1 and 10 mM”.
As to acetone, the “Activity (substrate)” value reads like this: (65 mM) “Yes”; (at lower concentrations than 65 mM) “Much lower”.
Consider `OC[C@H]1O[C@@](CO)(O[C@H]2O[C@H](CO)[C@@H](O)[C@H](O)[C@H]2O)[C@@H](O)[C@@H]1O` [Sucrose], for which the “Activity (substrate)” value (25 mM) is reported as “No 25 mM”.
As for `C=C1C[C@]23C[C@@]1(O)CC[C@H]2[C@@]12C=C[C@H](O)[C@@](C)(C(=O)O1)[C@H]2[C@@H]3C(=O)O` [Gibberellic Acid (GA3)], for the setting “1 and 10 mM”, the “Activity (substrate)” value is “No 1 and 10 mM”.
As for `C[C@]12CCC(=O)CC1CCC1C2CC[C@]2(C)C(=O)CCC12` (stereo in doubt) [5α-androstane-3,17-dione], for the setting “100 μM”, the “Activity (substrate)” value was “YES 100 μM”.
With `CN1C2CCC1CC(O)C2` (stereo not drawn) [Tropine], the “Activity (substrate)” value (1 and 10 mM) was “No retested with new enzyme 1 and 10 mM”.
As to `O=C(O)C(O)C(O)C(O)C(O)CO` (stereo not drawn) [Potassium d-gluconate], where the note is “25 mM”, the “Activity (substrate)” value is “No 25 mM”.
For `C[C@]12CCC(=O)C=C1CCC1C2CC[C@]2(C)C(=O)CCC12` (stereo partly drawn) [4-androstene-3,17-dione], for the setting “100 μM”, the “Activity (substrate)” value is reported as “YES 100 μM”.
Regarding `OCC(O)C(O)C(O)CO` (stereo not drawn) [Arabinitol], the “Activity (substrate)” value (25 mM) is reported as “No 25 mM”.
For the molecule `O=C1OC(CO)[C@H](O)C(O)C1O` (stereo partly drawn) [δ-gluconolactone], for the setting “25 mM”, the “Activity (substrate)” value is recorded as “No 25 mM”.
Regarding `OCC1O[C@H](O)C(O)[C@@H](O)[C@@H]1O` (stereo partly drawn) [D-Glucose], under “25 mM”, the “Activity (substrate)” value is given as “No 25 mM”.
In the case of `O=C1OC(CO)[C@@H](O)[C@H](O)C1O` (stereo partly drawn) [Glucono 1,5 lactone], the “Activity (substrate)” value (25 mM) is given as “No 25 mM”.
For isopropanol, the “Activity (substrate)” value (68 mM, substrate for the reverse reaction) is “Yes 68 mM”. In addition, for the setting “at same concentrations, reverse reaction”, the “substrate quality compared with acetone” value is “At high concentrations it is a substrate for the reverse reaction but at same concentrations is a poorer substrate than acetone indicating potential preference for the reductase activity under these conditions”.

The values are drawn from patent US7994402B2, “Method of increasing plant organ and seed size in a plant” (Monsanto Technology LLC, priority 2002, dated 2011).
